Data from US20250057910A1, “Application of Polypeptide in Preparation of Product for Preventing or Treating Skin Injury Diseases” (Sichuan Gooddoctor Panxi Pharmaceutical Co., Ltd., priority 2021, published 2025).
Ends that are not written are not given here.

Columns and labels:
[1] = tested on: STZ-induced diabetic rats; assay: Healing of skin ulcer in streptozotocin (STZ)-induced diabetic rats; format: in vivo, rat; conditions: for Wound healing rates of diabetic rats: Mean ± SD, n = 15
Experimental: Experimental animals: After SPF grade male healthy SD rats (weighing 180-200 g) were fed with high-fat and high-sugar diet for 2 weeks and fasted for 6 hours, each rat was rapidly injected with an STZ solution (50 mg kg^−1) intraperitoneally at one time, and 48 hours later, the random blood glucose values were >16.7 mmol/L twice, indicating the successful establishment of type II diabetic rat model. Experimental animals were purchased from Beijing Vital River Laboratory Animal Technology Co., Ltd., with the experimental animal quality certification number of SCXK (Beijing) 2017-0033, and the experimental animal use license number of SCXK (Beijing) 2017-0033.
Experimental method: 90 diabetic rats were selected and randomly divided into 6 groups with 15 rats in each group, namely, model control group (normal saline), high-dose polypeptide group (30 μg/cm^2), medium-dose polypeptide group (10 μg/cm^2), and low-dose polypeptide group (3 μg/cm^2), GeneTime group (40 IU/cm^2, recombinant human epidermal growth factor topical solution, from Shenzhen Watsin Genetech Ltd.), and Kangfuxin Ye group (36 μL/cm^2, Kangfuxinye, from SICHUAN GOODDOCTOR PANXI PHARMACEUTICAL CO., LTD.). After each experimental rat was anesthetized by intraperitoneal injection of 2% pentobarbital sodium (0.2 mL/100 g), a 2 cm^2 full-layer skin defect wound was prepared at each of both sides of the back spine, and a rubber ring with a diameter of 2.3 cm was stitched at the outer edge of the wound. After hemostasis of the wound, local drug therapy at the wound was carried out by group. Except that the Kangfuxin Ye group was administered 2 times/day, other groups were administered once a day, with a dosed volume of 72 μL/wound each time, for 14 consecutive days. After the administration, the wound was covered with a sterile vaseline gauze (5 cm*5 cm), and bandaged with multi-layer sterile gauzes. After the wound surgery, the wound was photographed, and the wound area was recorded as the baseline value (the wound was recorded as Day0). During the administration period, the wound areas were photographed and measured 3 times a week, and the granulation tissue growth and healing of wound in each group were observed every day.

[2] = tested on: RSC96 cells (Rat Schwann cells); assay: Proliferation of RSC96 cells (CCK-8); format: cell-based; conditions: 48 hours, 0% serum medium, FIG. 4
Experimental: Experimental method: Rat Schwann cells (RSC96 cells) were adjusted to a concentration of 1.0*10^5 to 5.0*10^5/mL for passaging, and cultured at 37° C. and 5% CO2 for 24-36 hours for the biological activity detection. The cells were digested by trypsin, collected, prepared into a concentration of 5*10^4/mL with a serum-free medium, seeded in a 96-well cell culture plate with 100 μL per well, i.e., […], and cultured overnight at 37° C. and 5% CO2.
The polypeptide was dissolved in PBS solution and prepared into a stock solution with a concentration of 400 ug/ml. The polypeptide stock solution was prepared with 0% serum medium to test concentrations as the experimental groups; and for the control group, the same volume of 0% serum medium without drugs was added. For all the groups, 4 duplicate wells were incubated at 37° C. and 5% CO2 for 48 hours. The CCK-8 was used to detect cell proliferation: the old medium was removed, the serum-free medium containing 10% CCK-8 was added to each well, and absorbances were measured at 450 nm by microplate reader after incubation in an incubator for 2 hours.

SD rats = assay: Healing of full-layer skin defect wound in SD rats; format: in vivo, rat; conditions: for Wound healing rate: SD rats, topical once a day, polypeptide 50 μg/cm^2, comparative polypeptide 1 41.90 μg/cm^2, comparative polypeptide 2 52.66 μg/cm^2, Mean ± SD, n = 8
Experimental: Experimental animals: SD male rats, SPF grade, 6 weeks old, weighing 180-220 g, from Beijing Vital River Laboratory Animal Technology Co., Ltd., with the experimental animal quality certification number of NO.110011220109610345, and the experimental animal use license number of SCXK (Beijing) 2021-0011.
Experimental method: SD rats were randomly divided into […] based on the body weight with 8 animals in each group, namely, vehicle group, the polypeptide group (50 μg/cm^2), comparative polypeptide 1 group (41.90 μg/cm^2) and comparative polypeptide 2 group (52.66 μg/cm^2). The amino acid sequence of comparative polypeptide 1 is Glu-Pro-Val-Pro-Leu; and the amino acid sequence of comparative polypeptide 2 is Pro-Ala-Ala-Glu-Pro-Val-Pro-Leu-Val-Lys-Gln-Glu.
After each experimental rat was anesthetized by intraperitoneal injection of 2% pentobarbital sodium (0.2 mL/100 g), a 2 cm^2 full-layer skin defect wound was prepared at each of both sides of the back spine. After hemostasis of the wound, the corresponding drug was administered at the wound locally by group. Each group was administered once a day, with a dosed volume of 72 μL/wound each time, for 14 consecutive days. After the administration, the wound was covered with a sterile vaseline gauze (5 cm*5 cm), and bandaged with multi-layer sterile gauzes. After the wound surgery, the wound was photographed, and the wound area was recorded as the baseline value (the wound was recorded as Day0). During the administration period, the areas of the wounds were photographed and measured 3 times a week, and the healing was observed.

Sequence: PAAEPVPL [polypeptide]
- Formation rate of new granulation tissues ([1]; 3rd day after injury, low-, medium- and high-dose (3, 10, 30 μg/cm^2), vs model control, FIG. 8): promoted the growth rate of new granulation tissue compared to the model control group with significant differences
- Wound healing rates of diabetic rats ([1]; Day 0 (baseline), high-dose 30 μg/cm^2, topical once a day): 0.00 ± 0.00%
- Wound healing rates of diabetic rats ([1]; Day 0 (baseline), low-dose 3 μg/cm^2, topical once a day): 0.00 ± 0.00%
- Wound healing rates of diabetic rats ([1]; Day 0 (baseline), medium-dose 10 μg/cm^2, topical once a day): 0.00 ± 0.00%
- Wound healing rates of diabetic rats ([1]; Day 3, high-dose 30 μg/cm^2, topical once a day): 6.82 ± 19.81%
- Wound healing rates of diabetic rats ([1]; Day 3, low-dose 3 μg/cm^2, topical once a day): 3.05 ± 8.10%
- Wound healing rates of diabetic rats ([1]; Day 3, medium-dose 10 μg/cm^2, topical once a day): 5.04 ± 9.31%
- Wound healing rates of diabetic rats ([1]; Day 7, high-dose 30 μg/cm^2, topical once a day): 62.62 ± 12.24%
- Wound healing rates of diabetic rats ([1]; Day 7, low-dose 3 μg/cm^2, topical once a day): 54.67 ± 18.10%
- Wound healing rates of diabetic rats ([1]; Day 7, medium-dose 10 μg/cm^2, topical once a day): 57.57 ± 10.49%
- Wound healing rates of diabetic rats ([1]; Day 10, high-dose 30 μg/cm^2, topical once a day): 88.49 ± 5.17 %
- Wound healing rates of diabetic rats ([1]; Day 10, low-dose 3 μg/cm^2, topical once a day): 84.05 ± 10.21%
- Wound healing rates of diabetic rats ([1]; Day 10, medium-dose 10 μg/cm^2, topical once a day): 84.26 ± 9.10%
- Wound healing rates of diabetic rats ([1]; Day 12, high-dose 30 μg/cm^2, topical once a day): 98.39 ± 2.39%
- Wound healing rates of diabetic rats ([1]; Day 12, low-dose 3 μg/cm^2, topical once a day): 95.92 ± 5.82%
- Wound healing rates of diabetic rats ([1]; Day 12, medium-dose 10 μg/cm^2, topical once a day): 97.77 ± 3.71%
- Wound healing rates of diabetic rats ([1]; Day 14, high-dose 30 μg/cm^2, topical once a day): 99.85 ± 0.77%
- Wound healing rates of diabetic rats ([1]; Day 14, low-dose 3 μg/cm^2, topical once a day): 99.46 ± 1.46%
- Wound healing rates of diabetic rats ([1]; Day 14, medium-dose 10 μg/cm^2, topical once a day): 99.85 ± 0.84%
- Wound healing in diabetic rats (statement in words) ([1]; high-dose 30 μg/cm^2, vs model control, Day 10): significant healing promoting effect
- Wound healing in diabetic rats (statement in words) ([1]; low and medium doses (3 and 10 μg/cm^2), Day 10, vs model control): tendency to promote the wound healing
- Proliferation-promoting effect on the RSC96 cell line [2]: significant effect of promoting proliferation
- Healing rate of full-layer skin defect wound (statement in words) (SD rats; 50 μg/cm^2, days 3-10 after surgery, vs vehicle group): higher healing rate with a significant difference
- Wound healing rate (SD rats; Day 0 (baseline)): 0.00 ± 0.00%
- Wound healing rate (SD rats; Day 3): 29.70 ± 19.21 %
- Wound healing rate (SD rats; Day 5): 52.21 ± 11.54 %
- Wound healing rate (SD rats; Day 7): 74.12 ± 5.95 %
- Wound healing rate (SD rats; Day 10): 94.55 ± 2.40 %
